Test results as given in paper PMC13083723 (Patterns, 2026).
Values joined by “and” are separate entries in the source; they are usually repeats but may differ in a detail not shown here. Equal entries are not always repeated. Structures can show the parent of a compound that is named as a salt. Where two headings read alike, the source gives them in different places.

Key:
[1] = system: Vero-E6 cells; assay: cells; format: cell-based; settings: for activation at 10 µM / activation at 5 µM / activation at 20 µM: Vero C1008, 24 h; for activation at 5 µM: read-out: PLD Effect in % 5 µM; for activation at 20 µM: read-out: PLD Effect in % 20 µM
[2] = system: A549-ACE2 cells; assay: cells; format: cell-based; settings: A549-ACE2, 24 h, read-out: PLD_Effect(%) A549-ACE2
[3] = cited from earlier work; for IC50: read-out: IC50 (value)
[4] = system: SARS-CoV-2; settings: 10 µM; cited from earlier work
[5] = system: SARS-CoV-2; settings: cited from earlier work; for CaCo2 CPE inhibition %: Caco-2, 20 µM
[6] = Chlorocebus sabaeus, read-out: PLD_Effect(%) VERO-E6
[7] = value is the negative log10 of mol/L
[8] = Chlorocebus sabaeus, read-out: PLD Effect in % 10 µM
[9] = Chlorocebus sabaeus, Vero C1008, read-out: PLD EC50 µM

In the case of `CN(C(=O)Cc1ccc(Cl)c(Cl)c1)[C@H](CN1CCCC1)c1ccccc1` [ICI-199441], the activation at 10 µM [1, 6] is given as 53.5%, the activation at 10 µM [2] is given as 99.8% and the IC50 [3] is given as 26 nM. The “pchembl_value (IC50)” value [3, 7] was 7.58.

Compound `CN1CCC(Nc2ncc3ncnc(Nc4ccc(F)c(Cl)c4)c3n2)CC1` [BiBX-1382, reference compound] has an activation at 5 µM ([1]; Chlorocebus sabaeus) of 85.8%, an activation at 10 µM [1, 8] of 75.5% and an activation at 20 µM ([1]; Chlorocebus sabaeus) of -0.64%. The EC50 [1, 9] was 0.61 µM and the “Vero-E6 CPE inhibition %” value [4] was 0.28%.

For `N[C@H]1CC[C@H](N[C@@H]2C[C@H]2c2ccccc2)CC1` [ORY-1001 (RG-6016) 2HCl], the activation at 10 µM [1, 6] is listed as 65.7%, the activation at 10 µM [2] is listed as 98.4% and the Ki [3] is listed as 50 nM. For the same compound, the pchembl_value [3] was 9.85 and 7.30 and 7.48.

For `OCCN1CCN(CC/C=C2/c3ccccc3Sc3ccc(C(F)(F)F)cc32)CC1` [Flupentixol], the activation at 10 µM [1, 6] is given as 83.6%, the activation at 10 µM [2] is given as 81.9% and the “Log IC50 (value)” value [3] is given as -8.65. The “pchembl_value (Log IC50)” value [3] was 8.65.

`CCN(CC)CCCC(C)Nc1c2ccc(Cl)cc2nc2ccc(OC)cc12` (stereo not shown) [quinacrine hydrochloride, reference compound] showed an activation at 5 µM ([1]; Chlorocebus sabaeus) of 145%, an activation at 10 µM [1, 8] of 141% and an activation at 20 µM ([1]; Chlorocebus sabaeus) of -13.2%. The EC50 [1, 9] was 1.55 µM and the “Vero-E6 CPE inhibition %” value [4] was -0.23%.

With `OCCNC1CCCc2c1[nH]c1ccc(-c3ccccc3)cc21` (stereo not shown) [casin, reference compound] the “PLD Effect in % 5 µM” value [1] was 116.35%, the “PLD Effect in % 10 µM” value [1] was 193.97% and the “PLD Effect in % 20 µM” value [1] was 134.63%. For the same compound, the EC50 ([1]; read-out: PLD EC50) was 3.31 µM and the “CaCo2 CPE inhibition %” value [5] was 71.19%.

In the case of `Nc1nc2c(c(N3CCNCC3)n1)CCC1=C2[C@@H]2CCCC[C@@H]2O1` [A-987306], the activation at 10 µM [1, 6] is given as 70.7%, the activation at 10 µM [2] is given as 52.2% and the “pKi (value)” value [3] is given as 7.1. For the same compound, the “pchembl_value (pKi)” value [3] was 7.10 and the “pchembl_value (IC50)” value [3, 7] was 8.41 and 10.06 and 8.24.

With `Cc1ccc(NC(=O)c2ccc(CN3CCN(C)CC3)cc2)cc1Nc1nc(-c2cccnc2)cs1` [masitinib (AB1010), masitinib, reference compound] the “PLD induction assay (active)” value [1] was “active”, the activation at 5 µM ([1]; Chlorocebus sabaeus) was 43.1% and the activation at 10 µM [1, 8] was 45.2%. For the same compound, the activation at 20 µM ([1]; Chlorocebus sabaeus) was 53.3%, the EC50 ([1]; Chlorocebus sabaeus, Vero C1008, read-out: PLD EC50) was 2.57 µM and the “CaCo2 CPE inhibition %” value [5] was 107.90%. For the same compound, the “CaCo2 CPE assay (active)” value ([5]; Caco-2) was “active”.

In the case of `O=C(NCCN1CCC2(CC1)C(=O)NCN2c1cccc(F)c1)c1ccc2ccccc2c1` [VU-0364739], the activation at 10 µM [1, 6] is listed as 55.1%, the activation at 10 µM [2] is listed as 113% and the IC50 [3] is listed as 20 nM. The “pchembl_value (IC50)” value [3, 7] was 7.70.

In the case of `O=S(=O)(NCCNC/C=C/c1ccc(Br)cc1)c1cccc2cnccc12` [H-89], the activation at 10 µM [1, 6] is listed as 60.8%, the activation at 10 µM [2] is listed as 98.9% and the IC50 [3] is listed as 590 nM. For the same compound, the Kd ([3]; read-out: Kd (value)) was 24 nM and the “pchembl_value (Kd)” value [3, 7] was 7.62.

In the case of `CN1CCCN(C(c2ccccc2)c2ccc(Cl)cc2)CC1` (stereo not shown) [Homochlorcyclizine?2HCl], the activation at 10 µM [1, 6] is listed as 82.5%, the activation at 10 µM [2] is listed as 69.6% and the “pchembl_value (AC50)” value [3] is listed as 6.64 and 7.14 and 6.83.

For `CCN(CC)CCOC(=O)C(c1ccccc1)C1CCCCC1` (stereo not shown) [DROFENINE HYDROCHLORIDE], the activation at 10 µM [1, 6] is given as 52%, the activation at 10 µM [2] is given as 53.9% and the “pchembl_value (AC50)” value [3] is given as 6.66 and 7.47.

In the case of `CCN(CC)CCO[C@H]1CC[C@@]2(C)C(=CC[C@@H]3[C@@H]2CC[C@]2(C)C(=O)CC[C@@H]32)C1` [U-18666A, reference compound], the “PLD Effect in % 5 µM” value [1] is reported as 84.91%, the “PLD Effect in % 10 µM” value [1] is reported as 98.22% and the “PLD Effect in % 20 µM” value [1] is reported as 112.55%. For the same compound, the EC50 ([1]; read-out: PLD EC50) was 1.77 µM and the “CaCo2 CPE inhibition %” value [5] was 77.44%.

For `C[C@@H]1CCCN1CCc1cc2cc(-c3ccc(C#N)cc3)ccc2o1` [ABT 239 tartrate], the activation at 10 µM [1, 6] is listed as 66.8%, the activation at 10 µM [2] is listed as 67.4% and the Ki ([3]; read-out: Ki (value)) is listed as 0.45 nM.

In the case of `C[C@H](Oc1cc(-c2cnn(C3CCNCC3)c2)cnc1N)c1c(Cl)ccc(F)c1Cl` [(S)-crizotinib], the activation at 10 µM [1, 6] is given as 70.2%, the activation at 10 µM [2] is given as 102% and the IC50 [3] is given as 680 nM. For the same compound, the Ki ([3]; read-out: Ki (value)) was 161 nM, the “pchembl_value (IC50)” value [3, 7] was 6.86 and 6.17 and the “pchembl_value (Kd)” value [3, 7] was 7.43 and 6.28 and 7.41. The “pchembl_value (Ki)” value [3, 7] was 6.79.

For `Clc1ccc(C(OCCN2CCCCC2)c2ccccc2)cc1` (stereo not shown) [CLOPERASTINE HYDROCHLORIDE], the activation at 10 µM [1, 6] is given as 63.9%, the activation at 10 µM [2] is given as 72.5% and the “pchembl_value (AC50)” value [3] is given as 6.48. The AC50 ([3]; read-out: AC50 (value)) was 331 nM.
